Assay results published in ChEMBL document CHEMBL1153220, “Chemical lead optimization of a pan G(q) mAChR M(1), M(3), M(5) positive allosteric modulator (PAM) lead. Part I: Development of the first highly selective M(5) PAM” (Bioorg Med Chem Lett, 2010).

Assays:
[1] = target: T1, Muscarinic acetylcholine receptor M5 (Homo sapiens, UniProt P08912); experiment: Agonist activity at human muscarinic M5 expressed in CHO cells assessed as stimulation of calcium mobilization; format: functional, cell-based
T1 sequence (P08912 whole entry): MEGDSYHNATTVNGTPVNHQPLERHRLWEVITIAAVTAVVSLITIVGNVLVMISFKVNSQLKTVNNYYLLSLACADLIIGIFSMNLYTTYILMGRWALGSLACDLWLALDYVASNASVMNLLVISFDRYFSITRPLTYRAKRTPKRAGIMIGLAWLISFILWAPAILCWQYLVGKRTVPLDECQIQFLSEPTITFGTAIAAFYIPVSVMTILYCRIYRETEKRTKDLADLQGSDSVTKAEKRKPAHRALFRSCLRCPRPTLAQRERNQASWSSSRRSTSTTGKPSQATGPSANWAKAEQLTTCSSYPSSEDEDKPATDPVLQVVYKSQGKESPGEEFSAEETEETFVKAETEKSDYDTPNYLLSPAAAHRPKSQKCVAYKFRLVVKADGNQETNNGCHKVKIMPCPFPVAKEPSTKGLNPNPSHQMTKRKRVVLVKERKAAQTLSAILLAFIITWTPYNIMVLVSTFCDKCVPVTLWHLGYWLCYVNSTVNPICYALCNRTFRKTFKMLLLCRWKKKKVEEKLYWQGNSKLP

[2] = target: T2, Muscarinic acetylcholine receptor M1 (Rattus norvegicus, UniProt P08482); experiment: Agonist activity at rat muscarinic M1 expressed in CHO cells assessed as stimulation of calcium mobilization; format: functional, cell-based
T2 sequence (P08482 whole entry): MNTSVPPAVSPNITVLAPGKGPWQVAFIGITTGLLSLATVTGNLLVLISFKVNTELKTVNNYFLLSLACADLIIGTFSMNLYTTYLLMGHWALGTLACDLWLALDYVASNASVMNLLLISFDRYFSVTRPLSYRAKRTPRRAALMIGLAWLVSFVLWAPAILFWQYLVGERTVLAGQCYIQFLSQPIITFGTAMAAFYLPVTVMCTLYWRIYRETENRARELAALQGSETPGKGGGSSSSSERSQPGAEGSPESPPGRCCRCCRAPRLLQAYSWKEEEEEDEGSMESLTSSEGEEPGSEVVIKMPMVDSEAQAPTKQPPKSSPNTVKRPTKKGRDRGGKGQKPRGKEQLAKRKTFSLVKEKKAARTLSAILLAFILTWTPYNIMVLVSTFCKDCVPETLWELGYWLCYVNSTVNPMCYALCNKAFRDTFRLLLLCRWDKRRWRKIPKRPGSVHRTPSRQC

[3] = target: T3, Muscarinic acetylcholine receptor M5 (Homo sapiens) (UniProt P08912); experiment: Agonist activity at human muscarinic M5 expressed in CHO cells assessed as stimulation of calcium mobilization relative to acetyle choline; format: functional, cell-based; parameters: concentration or dose not given beside the values
T3 sequence (whole entry): T1 sequence (P08912 whole entry)

[4] = Ratio of AUC in rat brain to AUC in rat plasma; format: ADME, tissue-based; details: read-out: Ratio AUC
[5] = target: T4, Muscarinic acetylcholine receptor M4 (Rattus norvegicus, UniProt P08485); experiment: Agonist activity at rat muscarinic M4 expressed in CHO cells assessed as stimulation of calcium mobilization; format: functional, cell-based
T4 sequence (P08485 whole entry): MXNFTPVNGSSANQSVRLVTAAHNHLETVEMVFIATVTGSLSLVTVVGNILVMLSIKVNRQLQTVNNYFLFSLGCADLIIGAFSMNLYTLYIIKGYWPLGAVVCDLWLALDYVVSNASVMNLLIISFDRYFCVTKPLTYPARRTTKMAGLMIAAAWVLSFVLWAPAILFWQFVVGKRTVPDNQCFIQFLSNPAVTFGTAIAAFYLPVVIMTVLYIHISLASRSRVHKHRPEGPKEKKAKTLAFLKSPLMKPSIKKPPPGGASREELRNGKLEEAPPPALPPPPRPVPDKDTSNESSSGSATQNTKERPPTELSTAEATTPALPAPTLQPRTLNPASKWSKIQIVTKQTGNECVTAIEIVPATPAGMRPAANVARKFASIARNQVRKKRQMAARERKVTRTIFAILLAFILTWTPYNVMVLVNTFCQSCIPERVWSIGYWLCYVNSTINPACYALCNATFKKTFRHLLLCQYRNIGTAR

[6] = target: T5, Muscarinic acetylcholine receptor M2 (Rattus norvegicus, UniProt P10980); experiment: Agonist activity at rat muscarinic M2 expressed in CHO cells assessed as stimulation of calcium mobilization; format: functional, cell-based
T5 sequence (P10980 whole entry): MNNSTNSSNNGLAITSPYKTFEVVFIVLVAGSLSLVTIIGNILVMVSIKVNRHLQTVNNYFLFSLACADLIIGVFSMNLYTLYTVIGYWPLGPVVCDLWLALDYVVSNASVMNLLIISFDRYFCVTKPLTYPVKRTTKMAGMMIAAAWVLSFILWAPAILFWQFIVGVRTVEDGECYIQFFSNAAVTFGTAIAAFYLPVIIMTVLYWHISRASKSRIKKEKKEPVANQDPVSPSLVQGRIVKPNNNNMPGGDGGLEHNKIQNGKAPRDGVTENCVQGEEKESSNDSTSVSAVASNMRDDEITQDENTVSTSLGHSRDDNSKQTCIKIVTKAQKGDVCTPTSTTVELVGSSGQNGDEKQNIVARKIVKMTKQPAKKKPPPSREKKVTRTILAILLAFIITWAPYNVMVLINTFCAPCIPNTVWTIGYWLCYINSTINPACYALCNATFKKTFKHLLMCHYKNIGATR

[7] = target: Muscarinic acetylcholine receptor M3 (Homo sapiens) (UniProt P20309); experiment: Agonist activity at human muscarinic M3 expressed in CHO cells assessed as stimulation of calcium mobilization at 30 uM; format: functional, cell-based
[8] = target: T6, Muscarinic acetylcholine receptor M1 (Rattus norvegicus) (UniProt P08482); experiment: Agonist activity at rat muscarinic M1 expressed in CHO cells assessed as stimulation of calcium mobilization at 30 uM; format: functional, cell-based
T6 sequence (whole entry): T2 sequence (P08482 whole entry)

Chain of Muscarinic acetylcholine receptor M3 (Homo sapiens) (P20309 whole entry, looked up): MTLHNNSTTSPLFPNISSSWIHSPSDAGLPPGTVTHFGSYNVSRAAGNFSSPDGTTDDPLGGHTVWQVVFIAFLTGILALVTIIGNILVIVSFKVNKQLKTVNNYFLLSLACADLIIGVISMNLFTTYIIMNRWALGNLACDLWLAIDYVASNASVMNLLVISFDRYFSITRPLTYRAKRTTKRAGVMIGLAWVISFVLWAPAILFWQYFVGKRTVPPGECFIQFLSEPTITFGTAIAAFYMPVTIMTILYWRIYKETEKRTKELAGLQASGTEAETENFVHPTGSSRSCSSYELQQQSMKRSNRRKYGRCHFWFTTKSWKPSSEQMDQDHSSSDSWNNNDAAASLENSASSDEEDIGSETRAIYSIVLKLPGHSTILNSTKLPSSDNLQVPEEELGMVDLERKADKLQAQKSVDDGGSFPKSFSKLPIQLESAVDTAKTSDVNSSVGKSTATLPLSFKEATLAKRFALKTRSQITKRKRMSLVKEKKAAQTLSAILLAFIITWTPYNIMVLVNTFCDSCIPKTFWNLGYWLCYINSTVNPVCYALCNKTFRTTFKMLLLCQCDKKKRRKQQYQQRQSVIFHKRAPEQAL

## O=C1C(=O)N(Cc2ccc(-c3ccc(F)nc3)cc2)c2ccc(OC(F)(F)F)cc21
[1]
  EC50: 3.6 µM
[2]
  EC50: > 30 µM
[3]
  Activity: 80%
[4]
  Kp: 0.25

## O=C1C(=O)N(Cc2ccc(C(F)(F)F)cc2)c2c(Cl)cccc21
[5]
  EC50: > 10 µM
[4]
  Kp: 0.25

## COc1ccc(CN2C(=O)C(=O)c3ccc(OC(F)(F)F)cc32)cc1
[1]
  EC50: 5.7 µM

## Cn1cc(-c2ccc(CN3C(=O)C(=O)c4cc(OC(F)(F)F)ccc43)cc2)cn1
[1]
  EC50: 3.3 µM
[2]
  EC50: > 30 µM
[3]
  Activity: 85%
[4]
  Kp: 0.25

## COc1ccc(CN2C(=O)C(=O)c3cc(OC(F)(F)F)ccc32)cc1
[1]
  EC50: 1.1 µM
[6]
  EC50: > 30 µM
[7]
  Activity: 30%
[8]
  Activity: 30%
[5]
  EC50: > 30 µM
[4]
  Kp: 0.25

## O=C1C(=O)N(Cc2ccc(Oc3ccccc3)cc2)c2ccc(OC(F)(F)F)cc21
[1]
  EC50: 1.9 µM
[3]
  Activity: 75%

## O=C1C(=O)N(Cc2ccc(Br)cc2)c2ccccc21
[6]
  EC50: > 30 µM
[5]
  EC50: > 30 µM
[4]
  Kp: 0.25

## O=C1C(=O)N(Cc2ccc(-c3ccccc3)cc2)c2ccc(OC(F)(F)F)cc21
[1]
  EC50: 2.7 µM
[2]
  EC50: > 30 µM
[3]
  Activity: 85%
[4]
  Kp: 0.25

## O=C1C(=O)N(Cc2ccc(-c3ccc(Cl)nc3)cc2)c2ccc(OC(F)(F)F)cc21
[1]
  EC50: 4.8 µM
[2]
  EC50: > 30 µM
[3]
  Activity: 85%
[4]
  Kp: 0.25

## O=C1C(=O)N(Cc2ccc(-c3ccsc3)cc2)c2ccc(OC(F)(F)F)cc21
[1]
  EC50: 2.8 µM
[2]
  EC50: > 30 µM
[3]
  Activity: 85%
[4]
  Kp: 0.25

## COc1ccccc1-c1ccc(CN2C(=O)C(=O)c3cc(OC(F)(F)F)ccc32)cc1
[1]
  EC50: 3.9 µM
[2]
  EC50: > 30 µM
[3]
  Activity: 70%
[4]
  Kp: 0.25

## O=C1C(=O)N(Cc2ccc(-c3ccccc3)cc2)c2cc(OC(F)(F)F)ccc21
[1]
  EC50: 2.7 µM
